From ChEMBL document CHEMBL3045072, “Anti-tyrosinase, antioxidant and antimicrobial activities of hydroxycinnamoylamides” (Med Chem Res, 2013)
Converted amounts (≈) assume the structure as drawn. The source made the active and inactive calls. The rule behind the calls is not given here.

Experiments:
Staphylococcus aureus = assay: Antimicrobial activity against Staphylococcus aureus 209 assessed as growth inhibition after 24 hr by serial dilution method; assay type: functional; conditions: Staphylococcus aureus, 209, 24 h
[1] = Inhibition of autoxidation of pure triacylglycerols of sunflower oil at 1 mM by iodometric analysis; assay type: toxicity; conditions: 1000 µM
Streptococcus pyogenes = assay: Antimicrobial activity against Streptococcus pyogenes 10535 assessed as growth inhibition after 24 hr by serial dilution method; assay type: functional; conditions: Streptococcus pyogenes, 10535, 24 h
[2] = test system: Radical scavenging activity; assay: Antioxidant activity assessed as DPPH radical scavenging activity at 1.8 mM after 20 min; assay type: functional
[3] = test system: Radical scavenging activity; assay: Antioxidant activity assessed as DPPH radical scavenging activity at 1.8 mM after 10 min; assay type: functional
[4] = test system: Radical scavenging activity; assay: Antioxidant activity assessed as DPPH radical scavenging activity at 0.9 mM after 20 min; assay type: functional
[5] = test system: Radical scavenging activity; assay: Antioxidant activity assessed as DPPH radical scavenging activity at 0.9 mM after 10 min; assay type: functional
[6] = test system: Radical scavenging activity; assay: Antioxidant activity assessed as DPPH radical scavenging activity at 3.6 mM after 10 min; assay type: functional
[7] = test system: Radical scavenging activity; assay: Antioxidant activity assessed as DPPH radical scavenging activity at 3.6 mM after 20 min; assay type: functional
[8] = target: T1, Tyrosinase (Agaricus bisporus) (UniProt O42713); assay: Inhibition of monophenolase activity of mushroom tyrosinase using L-tyrosine as substrate after 30 min by dopachrome method
T1 sequence (whole entry): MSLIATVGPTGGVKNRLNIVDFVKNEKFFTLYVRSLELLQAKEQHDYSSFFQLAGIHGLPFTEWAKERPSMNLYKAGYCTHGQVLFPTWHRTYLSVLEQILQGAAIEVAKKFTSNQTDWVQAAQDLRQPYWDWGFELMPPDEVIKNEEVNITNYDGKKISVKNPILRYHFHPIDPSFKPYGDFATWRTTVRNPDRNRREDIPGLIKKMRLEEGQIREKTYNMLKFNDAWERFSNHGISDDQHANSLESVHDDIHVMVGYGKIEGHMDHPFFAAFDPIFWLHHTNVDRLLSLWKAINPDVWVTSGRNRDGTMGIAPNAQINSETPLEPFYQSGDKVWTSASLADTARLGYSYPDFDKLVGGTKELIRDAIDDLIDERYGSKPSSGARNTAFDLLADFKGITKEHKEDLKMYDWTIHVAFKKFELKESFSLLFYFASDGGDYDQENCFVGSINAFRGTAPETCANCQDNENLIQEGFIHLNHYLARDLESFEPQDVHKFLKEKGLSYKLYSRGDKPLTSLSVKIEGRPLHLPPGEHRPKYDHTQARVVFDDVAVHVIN

SMILES | MIC (Staphylococcus aureus) [µg/mL] | inhibition (INH) [1] | MIC (Streptococcus pyogenes) [µg/mL] | Activity [2] [%] | Activity [3] [%] | Activity [4] [%] | Activity [5] [%] | Activity [6] [%] | Activity [7] [%] | inhibition [8]
COc1cc(/C=C/C(=O)NCCc2ccc(O)cc2)cc(OC)c1O [TRANS-N-SINAPOYLTYRAMINE] | 62.5 (≈ 182 µM) | Active | 62.5 (≈ 182 µM) |  |  |  |  |  |  | 
Cc1c(C)c2c(c(C)c1O)CCC(C)(CCCC(C)CCCC(C)CCCC(C)C)O2 (racemic) |  |  |  | 46.8 | 40.8 | 24.8 | 23.2 | 62.9 | 73.3 | 
Oc1ccc(O)cc1 |  |  |  |  |  |  |  |  |  | Active
NC[C@H]1O[C@H](O[C@H]2[C@H](O)[C@@H](O[C@H]3O[C@H](CO)[C@@H](O)[C@H](N)[C@H]3O)[C@H](N)C[C@@H]2N)[C@H](N)C[C@@H]1O [TOBRAMYCIN] | 15.6 (≈ 33.4 µM) |  | 7.81 (≈ 16.7 µM) |  |  |  |  |  |  | 
COC(=O)[C@H](Cc1c[nH]c2ccccc12)NC(=O)/C=C/c1ccccc1 |  |  |  | 1.41 | 1.2 | 0.69 | 0.79 | 1.18 | 1.48 | 
COC(=O)[C@H](Cc1ccc(O)c(O)c1)NC(=O)/C=C/c1ccc(O)c(O)c1 [N-CAFFEOYL-DOPA METHYL ESTER] |  | Active |  | 86 | 82.5 | 50.5 | 44.8 | 88.7 | 88.8 | 
COC(=O)[C@H](Cc1ccc(O)c(O)c1)NC(=O)/C=C/c1cc(OC)c(O)c(OC)c1 |  | Active |  | 45.8 | 43.9 | 25.4 | 23.8 | 80.9 | 82.8 | 
COC(=O)[C@H](Cc1ccccc1)NC(=O)/C=C/c1ccc(O)c(O)c1 [N-CAFFEOYL-PHENYLALANINE METHYL ESTER] |  | Active |  | 54.6 | 53.5 | 29.7 | 28.8 | 90.3 | 90.5 | 
COC(=O)[C@H](Cc1ccc(O)c(O)c1)NC(=O)/C=C/c1ccc(O)cc1 |  | Active |  | 34.8 | 33.3 | 19.1 | 18 | 64.4 | 67.1 | Active
COC(=O)[C@H](Cc1ccc(O)cc1)NC(=O)/C=C/c1ccc(O)c(O)c1 |  |  |  | 52.5 | 51 | 28.7 | 27.4 | 89.6 | 90.2 | 
COC(=O)[C@H](Cc1c[nH]c2ccccc12)NC(=O)/C=C/c1ccc(O)c(OC)c1 |  |  |  | 17.4 | 14.5 | 9.76 | 7.96 | 26.4 | 30.9 | 
COC(=O)[C@H](Cc1ccc(O)cc1)NC(=O)/C=C/c1cc(OC)c(O)c(OC)c1 | 125 (≈ 311 µM) |  | 250 (≈ 623 µM) | 25 | 23.1 | 15.6 | 14.2 | 43 | 45.3 | 
COC(=O)[C@H](Cc1ccc(O)cc1)NC(=O)/C=C/c1ccccc1 |  |  |  | 2.3 | 2.05 | 2.12 | 1.74 | 2.12 | 2.57 | 
COC(=O)[C@H](Cc1c[nH]c2ccccc12)NC(=O)/C=C/c1ccc(O)cc1 |  |  |  | 2.37 | 1.69 | 2.13 | 1.92 | 2.42 | 2.88 | 
COc1cc(/C=C/C(=O)N[C@@H](Cc2ccccc2)C(=O)OC(C)(C)C)cc(OC)c1O |  |  |  | 28.2 | 25 | 16.7 | 13.7 | 46.8 | 50.6 | 
O=C(O)/C=C/c1ccc(O)cc1 [COUMARIC ACID] |  | Not Active |  | 4.7 | 3.7 | 2.9 | 2.1 | 4.5 | 6.1 | Active
COc1cc(/C=C/C(=O)O)ccc1O [FERULATE] | 125 (≈ 644 µM) | Active | 125 (≈ 644 µM) | 25.1 | 21 | 13.8 | 12.6 | 36.7 | 44.3 | 
CC(C)(C)OC(=O)[C@H](Cc1ccccc1)NC(=O)/C=C/c1ccc(O)cc1 |  |  |  | 2.23 | 1.89 | 2.3 | 1.97 | 2.46 | 2.92 | 

SMILES | MIC (Staphylococcus aureus) [µg/mL] | inhibition (INH) [1] | MIC (Streptococcus pyogenes) [µg/mL] | Activity [2] [%] | Activity [3] [%] | Activity [4] [%] | Activity [5] [%] | Activity [6] [%] | Activity [7] [%] | inhibition [8]
COC(=O)[C@H](Cc1ccc(O)c(O)c1)NC(=O)/C=C/c1ccccc1 [N-CINNAMOYL-DOPA METHYL ESTER] |  | Active |  | 48.4 | 45.5 | 26.6 | 24.4 | 85 | 88.1 | 
COc1cc(/C=C/C(=O)NCCc2ccc(O)cc2)ccc1O [N-TRANS-FERULOYL TYRAMINE] | 62.5 (≈ 199 µM) |  | 125 (≈ 399 µM) |  |  |  |  |  |  | 
COc1cc(/C=C/C(=O)O)cc(OC)c1O [SINAPINATE] | 125 (≈ 558 µM) | Active | 125 (≈ 558 µM) | 31.9 | 26.5 | 17.2 | 16.1 | 69 | 69.6 | 
O=C(/C=C/c1ccc(O)cc1)NCCc1ccc(O)cc1 |  |  |  |  |  |  |  |  |  | Active
O=C(O)/C=C/c1ccccc1 [CINNAMIC ACID] |  | Not Active |  | 0.35 | 0.32 | 0.32 | 0.3 | 0.32 | 0.35 | 
COC(=O)[C@H](Cc1ccc(O)cc1)NC(=O)/C=C/c1ccc(O)cc1 |  |  |  | 1.42 | 1.04 | 0.71 | 0.64 | 1.44 | 1.88 | Active
COC(=O)[C@H](Cc1c[nH]c2ccccc12)NC(=O)/C=C/c1cc(OC)c(O)c(OC)c1 |  |  | 250 (≈ 589 µM) | 27.3 | 26 | 14.6 | 13.7 | 48.1 | 49.9 | 
COc1cc(/C=C/C(=O)NCCc2ccc(O)c(O)c2)ccc1O [N-TRANS-FERULOYLDOPAMINE] | 62.5 (≈ 190 µM) |  | 125 (≈ 380 µM) |  |  |  |  |  |  | 
COC(=O)[C@H](Cc1ccc(O)c(O)c1)NC(=O)/C=C/c1ccc(O)c(OC)c1 | 125 (≈ 323 µM) |  |  | 50.6 | 44.8 | 28.5 | 24.3 | 83.8 | 87 | 
COc1cc(/C=C/C(=O)N[C@@H](Cc2ccccc2)C(=O)OC(C)(C)C)ccc1O |  |  |  | 23.6 | 19.5 | 13.5 | 10.9 | 30.4 | 36.9 | 
O=C(/C=C/c1ccc(O)c(O)c1)NCCc1c[nH]c2ccccc12 | 125 (≈ 388 µM) |  | 62.5 (≈ 194 µM) |  |  |  |  |  |  | 
COc1cc(/C=C/C(=O)NCCc2c[nH]c3ccccc23)cc(OC)c1O | 250 (≈ 682 µM) |  | 62.5 (≈ 171 µM) |  |  |  |  |  |  | 
COC(=O)[C@H](Cc1ccc(O)cc1)NC(=O)/C=C/c1ccc(O)c(OC)c1 | 15 (≈ 40.4 µM) |  |  | 16.2 | 13.7 | 8.79 | 7.04 | 24.8 | 29.2 | 
O=c1c(O)c(-c2ccc(O)c(O)c2)oc2cc(O)cc(O)c12 |  |  |  | 58.4 | 46.7 | 45.2 | 40.4 | 76 | 78 | 
COC(=O)[C@H](Cc1ccccc1)NC(=O)/C=C/c1ccccc1 |  |  |  | 2.6 | 2.39 | 2.52 | 2 | 2.18 | 2.58 | 
COC(=O)[C@H](Cc1c[nH]c2ccccc12)NC(=O)/C=C/c1ccc(O)c(O)c1 |  | Active | 250 (≈ 657 µM) | 50.4 | 44.6 | 28.7 | 27.1 | 80.1 | 87.9 | 
O=C(O)/C=C/c1ccc(O)c(O)c1 [CAFFEIC ACID] | 125 (≈ 694 µM) | Active | 125 (≈ 694 µM) | 64.3 | 62.1 | 34.1 | 33.5 | 88 | 91.8 | 
O=C(/C=C/c1ccc(O)cc1)NCCc1ccc(O)c(O)c1 |  |  |  |  |  |  |  |  |  | Active
